The values that follow come from publication PMC7358525, “Characterization of PF-6142, a Novel, Non-Catecholamine Dopamine Receptor D1 Agonist, in Murine and Nonhuman Primate Models of Dopaminergic Activation” (Frontiers in Pharmacology, 2020).

Assay [1] has as its system MK-801-disrupted paired-pulse facilitation. As to the kind of experiment: Paired-pulse facilitation (PPF), CA1/subiculum to mPFC, urethane-anesthetized rat. The format is in vivo. How it is done:
Experiments were performed on n=10 adult male Sprague-Dawley rats (275–305 g) under urethane anesthesia (1.5 g/kg, i.p.). The femoral vein was cannulated for i.v. administration of drugs. A stimulation electrode was placed in the CA1/subiculum region (coordinates: A-P = +6.3 mm, M–L = +5.2 mm, D-V = +8.0 mm) using stereotactic methods and unilateral local field potential (LFP) was recorded by a metal monopolar macroelectrode placed into the medial PFC (mPFC; coordinates: A-P = +3.0 mm, M-L = +0.6 mm, D-V = +5.0 mm). […] Evoked responses to the first and the second stimuli were identified (P1 and P2, respectively) and the amount of PPF determined by the formula: (P2 amplitude/P1 amplitude). Waveform averages used to calculate PPF consisted of 60 consecutive stimuli. Five minutes were allowed between administration of each drug dose and the starting of the subsequent average of each 10-min period after each cumulative dose (0.1–1 mg/kg, IV). Disruption in power of LFP delta activity was measured as the percentage of power in low frequency (0–1.8 Hz) irregular activity in the total (0–4 Hz) delta power range. LFP power spectra were determined during periods concurrent with waveform averages and PPF calculation. Statistical significance was determined by means of two-tailed paired Student’s t-test.

Assay [2] deals with conditioned avoidance responding. Description: Rat conditioned avoidance response (CAR). The format is in vivo. How it is done:
The CAR assay was performed under similar conditions previously described ([Marquis et al., 2011]) at WuXiAppTec Inc. (Delin Rd. #90, Waigaoquiao Free Trade Zone, Shanghai 200131, China). For this study, adult male Fisher-344 rats were trained and tested in a two-way active avoidance apparatus with MED-PC software (MED Associates, St. Albans, VT, USA).
Briefly, subjects were handled and acclimated to the shuttle boxes for 2 d prior to training sessions. During training sessions, subjects were trained to avoid an electric footshock by moving to the adjacent, non-stimulus side of the shuttle box upon presentation of tone + light stimuli which preceded the presentation of the footshock (0.6 mA, 10 s duration) by 10 s. For this assay an avoidance was defined as moving to the adjacent compartment during the tone+light presentation that preceded the shock, an escape was defined as moving to the adjacent compartment upon presentation of the shock, and an escape failure was defined as a lack of relocation to the adjacent compartment throughout the presentation of the shock. Subjects received 30 trials of training per day for 5 d. Subjects with ≥ 80% avoidance responses on two consecutive days with no escape failures, were considered qualified for testing, and were randomized across treatment groups (n=8–9 per treatment group). […] Avoidance responding was calculated as % of the number of total trials in which an avoidance occurred. Data were calculated for each animal and compared across treatment groups using one-way ANOVA with Dunnett’s post-test versus the vehicle + vehicle treated group.

For a further assay, the system named is human D5 receptor. The conditions noted are these: stated in discussion, no data or reference printed; cited from earlier work.
The test system of another assay is human D1 receptor. The note with it: stated in discussion, no data or reference printed; cited from earlier work.

Each structure is given as a SMILES string.

`Cc1cc(Oc2nccc3occc23)ccc1-c1c(C)ncc2nccn12` [PF-6142]: in assay [1] (PF-6142 1.0 mg/kg IV cumulative (p=0.006)), the “PPF values vs MK-801 challenge” value is “significantly higher PPF values”. Besides, in assay [1] (PF-6142 1.0-3.0 mg/kg IV cumulative (3 mg/kg: p=0.89)), the “effect on MK-801-induced changes in PPF after SCH-23390 pretreatment” value is reported as “no significant effect”. Also, in assay [1] (cumulative IV, Spearman-Karber, 95% confidence levels 0.21-0.57 mg/kg, n=5), the “ED50 for reversal of MK-801-induced effects on PPF” value amounted to 0.35 mg/kg. Moreover, the “% avoidance responses” value was found to be 76.25% in assay [2] (PF-6142 1.78 mg/kg s.c. + risperidone 0.1 mg/kg s.c.) and 8.125% in assay [2] (PF-6142 1.78 mg/kg s.c. + risperidone 0.56 mg/kg s.c.). Also, the “% avoidance responding” value in assay [2] (PF-6142 1.78 mg/kg s.c. alone, combination study (Figure 4D)) is 94.38%. Further, the “mean % avoidance responses” value in assay [2] (PF-6142 alone 0.32 mg/kg s.c.) is 95.93%; in assay [2] (PF-6142 alone 1.78 mg/kg s.c., dose-range study), 98.47%; in assay [2] (PF-6142 alone 3.2 mg/kg s.c.) it was 95.57%; in assay [2] (PF-6142 alone 5.6 mg/kg s.c.) it was 95.75%. Besides, the affinity result in the assay on human D5 receptor and in the assay on human D1 receptor was “moderate affinity” each time.
